Where two headings read alike, the source gives them in different places.
What was measured:
[1] = system: LPS induced NO generation in RAW264.7 cells; test: PUFA pretreatment, LPS induced NO generation in RAW264.7
[2] = Plasma pharmacokinetics of antibiotics (HPLC); assay type: in vivo, Coho salmon (Oncorhynchus kisutch); conditions: for AUC, times higher in Formula 2 than same concentration in commercial feed: oral, same dose in both; for Cmax / Tmax / AUC(0-t): plasma; for AUC(0-t): read-out: AUC(0-120 h)
Description: In the first study, Coho salmon (n-70 fish/group) were treated with flumequine at a dose of 30 mg/kg incorporated in commercial feed or in formula F2. In the second study, fish were treated orally with florfenicol, antibiotic was given at 15 mg/kg incorporated in commercial feed or at 15 and 50 mg/kg in formula F2. In addition, florfenicol was also given via i.p. injection at 20 mg/kg. At predetermined time periods post-administration, blood samples were collected via the caudal vein according to routine procedures. Levels of antibiotics in plasma of fish were determined by high performance liquid chromatography (HPLC).

trout immune cells = assay type: cell-based; conditions: purified isoflavone
Text: The pellet is suspended in RPMI medium.

[3] = system: PHA induced IFN-gamma production in calf PBMC; test: PHA induced IFN-gamma production in calf PBMC; assay type: cell-based; conditions: PHA-E+L 1 ug/ml, 3 days, FIG. 9
Description: Calf PBMC were isolated as described in Example 3. […] After incubation, supernatants were sampled. Supernatants from identical treatment wells were combined and stored frozen at −18±5° C. until tested for IFN-gamma. Supernatant samples were tested for bovine IFN-gamma using a commercial kit (Thermo Scientific). Briefly, plates were coated overnight with capture antibody in carbonate coating buffer. […] Plates were washed and treated with streptavidin-HRP for 30 minutes at RT. Plates were washed and substrate was added for 20 minutes at RT in the dark. Following incubation, stop solution was added to each well, and plates were read at 450 nm (550 nm reference wavelength). Data was plotted as Stimulation Index (IFN-gamma concentration of sample treated with isoflavone divided by IFN-gamma concentration of sample treated with PHA only) vs. isoflavone concentration. Since isoflavones dilutions were made in DMSO, the DMSO carrier was tested at the corresponding concentrations to determine the carrier effect.

[4] = system: LPS-induced NO generation in RAW264.7 cells; test: LPS-induced NO generation in RAW264.7 cells (1 hour pretreatment with isoflavones or saponins); assay type: cell-based, murine
Description: In yet another exemplary embodiment, the ability of isoflavones to modulate the production of LPS-induced NO generation in RAW264.7 cells was investigated. […] Cells were incubated with isoflavones for 1 hour at 37±2° C.
Cells were incubated with saponins 1 hour at 37±2° C.

salmon immune cells = conditions: purified isoflavone
shrimp immune cells = conditions: purified isoflavone
swine immune cells = conditions: purified isoflavone
bovine immune cells = conditions: purified isoflavone
feline immune cells = conditions: purified isoflavone
canine immune cells = conditions: purified isoflavone
equine immune cells = conditions: purified isoflavone
human immune cells = conditions: purified isoflavone
[5] = Blood glucose after oral administration of insulin; assay type: in vivo, CD1 mice; conditions: FIG. 14
Description: Preparation of protease inhibitor extracts. Protease inhibitors (4.44 g beans and 0.56 g albumen) were homogenized in Tris-HCL buffer (pH 7.5). The mixture was divided in equal volumes, centrifuged (3500 RPM for 10 minutes) and supernatants were pooled together. Supernatant was then concentrated by centrifugation through 10K cut-off Millipore filter tubes.
Preparation of uptake-increasing agents solution. In a 15 ml falcon tube, 1 ml of carbonate-bicarbonate buffer (0.25 M, pH 9.5) was added to 45 mg of sodium deoxycholate and stirred until complete dissolution. In another 15 ml falcon tube, 7 ml of carbonate-bicarbonate buffer (0.25 M, pH 9.5) was added to 450 mg of EDTA and stirred until complete dissolution. Both solutions were then pooled together.
Final preparation of liquid formulation. […] The liquid formulation was then kept at 4° C. until use.
Experimental Design. Twenty four female CD1 mice of an average weight of 30 g were used in this study (see Table 14 for the identification of experimental groups). […]
CD1 mice were gavaged with insulin (200 U/kg) incorporated in a liquid composition (group A) and in water (group B). […] At determined time periods post-administration (see Table 13), blood samples were taken via the retroorbital sinus and blood glucose levels were measured individually for each animal using an Ascencia™ DEX-2 blood glucose meter kit.

[6] = po, 15 mg/kg, oral in Oralject ™ (F2)
[7] = po, 15 mg/kg, oral in commercial feed
[8] = po, 50 mg/kg, oral in Oralject ™ (F2)
[9] = po, 30 mg/kg, oral in Oralject ™ (F2)
[10] = po, 30 mg/kg, oral in commercial feed

## CCCCC/C=C\C/C=C\C/C=C\C/C=C\CCCC(=O)O [AA, arachidonic acid]
[1]; 24 hours pretreatment, LPS 1 μg/ml 8 hours
  concentration required to inhibit to a similar level (40%): 100 µM
[1]; FIG. 8
  immunomodulatory activity: marginal to no immunomodulatory activity

## CC/C=C\C/C=C\C/C=C\C/C=C\C/C=C\CCCCCC(=O)O [DPA, docosapentaenoic acid]
[1]; 1 μM PUFA, 24 hours pretreatment, LPS 1 μg/ml 8 hours
  inhibition (text: of proliferation; FIG. 8: of LPS induced NO production): 40%
[1]; FIG. 8
  fold more effective at inhibiting than the N-6 PUFA, AA: 10-100 fold

## CS(=O)(=O)c1ccc([C@@H](O)[C@@H](CF)NC(=O)C(Cl)Cl)cc1 [Florfenicol]
[2]
  AUC, times higher in Formula 2 than same concentration in commercial feed: 5.2 times
[2]; ip, 20 mg/kg, i.p. injection
  Cmax: 7050 ng/mL
  Tmax: 4 h
[2]; ip, 20 mg/kg, i.p. injection, 20 mg/kg
  AUC(0-t): 196000 ng·h/mL
[2]; [6]
  Cmax: 2150 ng/mL
  Tmax: 16 h
[2]; po, 15 mg/kg, oral in Oralject ™ (F2), 15 mg/kg
  AUC(0-t): 34400 ng·h/mL
[2]; [7]
  Cmax: 1380 ng/mL
  Tmax: 8 h
[2]; po, 15 mg/kg, oral in commercial feed, 15 mg/kg
  AUC(0-t): 6700 ng·h/mL
[2]; [8]
  Cmax: 7960 ng/mL
  Tmax: 6 h
[2]; po, 50 mg/kg, oral in Oralject ™ (F2), 50 mg/kg
  AUC(0-t): 136000 ng·h/mL

## CC1CCc2cc(F)cc3c(=O)c(C(=O)O)cn1c23 (stereo not shown) [Flumequine]
[2]; 30 mg/kg oral, FIG. 17
  peak plasma concentration, fold higher via Formula 2 than with commercial feed: approximately 5 fold
[2]
  AUC, times higher in Formula 2 than same concentration in commercial feed: 3.7 times
[2]; [9]
  Cmax: 440 ng/mL
  Tmax: 2 h
[2]; po, 30 mg/kg, oral in Oralject ™ (F2), 30 mg/kg
  AUC(0-t): 61900 ng·h/mL
[2]; [10]
  Cmax: 2290 ng/mL
  Tmax: 8 h
[2]; po, 30 mg/kg, oral in commercial feed, 30 mg/kg
  AUC(0-t): 16800 ng·h/mL

## CCCCC/C=C\C/C=C\CCCCCCCC(=O)O [LA, linoleic acid]
[1]; FIG. 8
  immunomodulatory activity: marginal to no immunomodulatory activity

## COc1ccc(-c2coc3cc(O)cc(O)c3c2=O)cc1 [biochanin A, 5,7-dihydroxy 4′-methoxy isoflavone]
Trout immune cells
  Cytokine Secretion Profile (determined by RT-PCR): None
[3]; 1 μM isoflavone
  effect on stimulation indices (IFN-gamma) compared to DMSO control: pronounced increase
[3]; 100 μM isoflavone
  effect on stimulation indices (IFN-gamma) compared to DMSO control: inhibitory effect
[4]; 25 μM, FIG. 10
  fold higher inhibitory activity compared to daidzein or genistein: approximately 10 fold
Salmon immune cells
  Cytokine Secretion Profile (determined by RT-PCR): IL-4
Shrimp immune cells
  Cytokine Secretion Profile (determined by RT-PCR): None
Swine immune cells
  Cytokine Secretion Profile (determined by RT-PCR): None
Bovine immune cells
  Cytokine Secretion Profile (determined by RT-PCR): None
Feline immune cells
  Cytokine Secretion Profile (determined by RT-PCR): IL-4, IL-10
Canine immune cells
  Cytokine Secretion Profile (determined by RT-PCR): IL-4, IL-10
Equine immune cells
  Cytokine Secretion Profile (determined by RT-PCR): IL-10
Human immune cells
  Cytokine Secretion Profile (determined by RT-PCR): none

## O=c1c(-c2ccc(O)cc2)coc2cc(O)ccc12 [daidzein]
Trout immune cells
  Cytokine Secretion Profile (determined by RT-PCR): IFN-gamma
[3]; 10 nM or 100 nM isoflavone
  effect on stimulation indices (IFN-gamma) compared to DMSO control: pronounced decrease
[3]; 1 μM isoflavone
  effect on stimulation indices (IFN-gamma) compared to DMSO control: pronounced increase
[3]; 100 μM isoflavone
  effect on stimulation indices (IFN-gamma) compared to DMSO control: inhibitory effect
Salmon immune cells
  Cytokine Secretion Profile (determined by RT-PCR): IFN-gamma
Shrimp immune cells
  Cytokine Secretion Profile (determined by RT-PCR): IFN-gamma
Swine immune cells
  Cytokine Secretion Profile (determined by RT-PCR): None
Bovine immune cells
  Cytokine Secretion Profile (determined by RT-PCR): IL-10
Feline immune cells
  Cytokine Secretion Profile (determined by RT-PCR): IL-4
Canine immune cells
  Cytokine Secretion Profile (determined by RT-PCR): None
Equine immune cells
  Cytokine Secretion Profile (determined by RT-PCR): None
Human immune cells
  Cytokine Secretion Profile (determined by RT-PCR): IFN-gamma

## O=c1c(-c2ccc(O)cc2)coc2cc(O)cc(O)c12 [genistein, 4′5,7-trihydroxyisoflavone]
Trout immune cells
  Cytokine Secretion Profile (determined by RT-PCR): IL-4, IL-10
[3]; 10 nM or 100 nM isoflavone
  effect on stimulation indices (IFN-gamma) compared to DMSO control: pronounced decrease
[3]; 1 μM isoflavone
  effect on stimulation indices (IFN-gamma) compared to DMSO control: pronounced increase
[3]; 100 μM isoflavone
  effect on stimulation indices (IFN-gamma) compared to DMSO control: no effect
Salmon immune cells
  Cytokine Secretion Profile (determined by RT-PCR): IL-10
Shrimp immune cells
  Cytokine Secretion Profile (determined by RT-PCR): None
Swine immune cells
  Cytokine Secretion Profile (determined by RT-PCR): IL-4
Bovine immune cells
  Cytokine Secretion Profile (determined by RT-PCR): IL-10
Feline immune cells
  Cytokine Secretion Profile (determined by RT-PCR): None
Canine immune cells
  Cytokine Secretion Profile (determined by RT-PCR): None
Equine immune cells
  Cytokine Secretion Profile (determined by RT-PCR): None
Human immune cells
  Cytokine Secretion Profile (determined by RT-PCR): IL-10

## CC1(C)C[C@@H](O)[C@]2(C)CC[C@]3(C)C(=CC[C@@H]4[C@@]5(C)CC[C@H](O)[C@](C)(CO)[C@@H]5CC[C@]43C)[C@@H]2C1 [sapogenol B, Sapogenol B]
[4]; FIG. 11
  rank of inhibitory potency among saponins: most potent inhibitor
[4]; lowest concentrations, FIG. 11
  inhibition of LPS-induced NO production: Zero to minimal inhibition
[4]; saponins in DMSO, FIG. 11
  inhibitory effect on LPS-induced NO production: inhibited LPS-induced NO production

## insulin: Human recombinant insulin (Sigma, #I2643)
[5]; 200 U/kg oral gavage in liquid composition (Formula 2)
  effect on blood glucose levels: markedly reduced blood glucose levels
[5]; 200 U/kg oral gavage in water
  effect on blood glucose levels: no efficacy in reducing glucose levels

Reference: patent publication US20080226682A1, “Immunoactive Compositions for Improved Oral Delivery of Vaccines and Therapeutic Agents” (PerOs Systems Technologies, Inc., priority 2007, published 2008)
